IC50 data for 23 compounds are collected here from patent US20150218172A1, “Pyrrolo[2,3-D]Pyrimidine Tropomyosin-Related Kinase Inhibitors” (PFIZER LIMITED, priority 2012, published 2015).

T1 sequence (P04629 441-796): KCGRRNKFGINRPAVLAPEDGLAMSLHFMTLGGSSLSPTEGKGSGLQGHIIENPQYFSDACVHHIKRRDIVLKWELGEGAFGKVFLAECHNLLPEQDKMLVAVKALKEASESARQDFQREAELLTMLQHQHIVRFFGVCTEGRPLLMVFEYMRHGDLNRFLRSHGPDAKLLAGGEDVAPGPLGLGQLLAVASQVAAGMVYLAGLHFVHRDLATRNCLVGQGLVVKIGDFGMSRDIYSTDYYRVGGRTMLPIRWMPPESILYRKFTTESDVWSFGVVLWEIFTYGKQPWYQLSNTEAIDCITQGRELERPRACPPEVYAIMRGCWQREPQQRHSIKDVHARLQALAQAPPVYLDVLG

The first test has as its target T1, TrkA (Homo sapiens, UniProt P04629).
T1 construct: aa 441-796; His; purchased Invitrogen PV3144
Briefly: Isolated TRK enzyme assay (HTRF KinEASE-TK kit), PV3144 TrkA enzyme assay.
Conditions: not given
It counts as biochemical. An outline of the steps:
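Recombinant His-tagged cytoplasmic domain of human TrkA, preactivated with ATP for 20 min, then 20 min with compound before biotinylated TK substrate (1 uM final) at room temperature. HTRF read at 665/620 nm; % inhibition normalised to reference-compound and DMSO controls, IC50 from sigmoid fit, mean of replicates.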
In general terms: TR-FRET usually uses a lanthanide donor and a delayed reading to cut background.
The IC50 is the midpoint of a concentration-inhibition curve. Turning to `Cc1cc(C)n(CC(=O)Nc2cc(C(=O)c3cn(CC4CC4)c4ncncc34)ccn2)n1` [Example 176, N-(4-{[7-(Cyclopropylmethyl)-7H-pyrrolo[2,3-d]pyrimidin-5-yl]carbonyl}pyridin-2-yl)-2-(3,5-dimethyl-1H-pyrazol-1-yl)acetamide], the IC50 stood at 107 nM.

Staying with this test, now noted: PV3144 TrkA enzyme assay, recombinant His-tagged cytoplasmic domain aa 441-796, 4 nM enzyme, 40 uM ATP; arithmetic mean where more than one reading; read-out: Trka enzyme (IC50).
Turning to `CC(C)n1cc(C(=O)c2ccnc(NC(=O)Cn3ccnc3)c2)c2cncnc21` [Example 156, 2-(1H-imidazol-1-yl)-N-(4-{[7-(propan-2-yl)-7H-pyrrolo[2,3-d]pyrimidin-5-yl]carbonyl}pyridin-2-yl)acetamide], the IC50 came to 1060 nM.
Same read-out and setting: to `CC(C)n1cc(C(=O)c2ccnc(NC(=O)Cc3ccc(Cl)cc3Cl)c2)c2cncnc21` [Example 157, 2-(2,4-dichlorophenyl)-N-(4-{[7-(propan-2-yl)-7H-pyrrolo[2,3-d]pyrimidin-5-yl]carbonyl}pyridin-2-yl)acetamide] belongs 15.6 nM; to `CC(C)n1cc(C(=O)c2ccnc(NC(=O)Cn3cccn3)c2)c2cncnc21` [Example 158, N-(4-{[7-(propan-2-yl)-7H-pyrrolo[2,3-d]pyrimidin-5-yl]carbonyl}pyridin-2-yl)-2-(1H-pyrazol-1-yl)acetamide], 1350 nM; to `CC(C)n1cc(C(=O)c2ccnc(NC(=O)Cc3ccccc3Cl)c2)c2cncnc21` [Example 159, 2-(2-chlorophenyl)-N-(4-{[7-(propan-2-yl)-7H-pyrrolo[2,3-d]pyrimidin-5-yl]carbonyl}pyridin-2-yl)acetamide], 53.6 nM.
Same read-out and setting: then `Cc1ccnn1CC(=O)Nc1cc(C(=O)c2cn(C(C)C)c3ncncc23)ccn1` [Example 160, 2-(5-methyl-1H-pyrazol-1-yl)-N-(4-{[7-(propan-2-yl)-7H-pyrrolo[2,3-d]pyrimidin-5-yl]carbonyl}pyridin-2-yl)acetamide], with 86.3 nM.
Consider `COc1ccc(CC(=O)Nc2cc(C(=O)c3cn(C(C)C)c4ncncc34)ccn2)cc1` [Example 161, 2-(4-methoxyphenyl)-N-(4-{[7-(propan-2-yl)-7H-pyrrolo[2,3-d]pyrimidin-5-yl]carbonyl}pyridin-2-yl)acetamide], for which the concentration for half-maximal inhibition (IC50) was 60.8 nM.
Consider `Cc1nccn1CC(=O)Nc1cc(C(=O)c2cn(C(C)C)c3ncncc23)ccn1` [Example 162, 2-(2-methyl-1H-imidazol-1-yl)-N-(4-{[7-(propan-2-yl)-7H-pyrrolo[2,3-d]pyrimidin-5-yl]carbonyl}pyridin-2-yl)acetamide], for which the IC50 is 9800 nM.
Consider `CC(C)n1cc(C(=O)c2ccnc(NC(=O)Cc3ccccn3)c2)c2cncnc21` [Example 163, N-(4-{[7-(propan-2-yl)-7H-pyrrolo[2,3-d]pyrimidin-5-yl]carbonyl}pyridin-2-yl)-2-(pyridin-2-yl)acetamide], for which the IC50 came to 3620 nM.
In the case of `CC(C)c1cn(CC(=O)Nc2cc(C(=O)c3cn(C(C)C)c4ncncc34)ccn2)nn1` [Example 164, N-(4-{[7-(propan-2-yl)-7H-pyrrolo[2,3-d]pyrimidin-5-yl]carbonyl}pyridin-2-yl)-2-[4-(propan-2-yl)-1H-1,2,3-triazol-1-yl]acetamide], the IC50 is 31.8 nM.
For the compound `COc1cc(C(=O)c2cn(C(C)C)c3ncncc23)cc(NC(=O)Cc2ccc(C#N)cc2)n1` [Example 165, 2-(4-cyanophenyl)-N-(6-methoxy-4-{[7-(propan-2-yl)-7H-pyrrolo[2,3-d]pyrimidin-5-yl]carbonyl}pyridin-2-yl)acetamide], the IC50 worked out at 1040 nM.
On to `CC1(n2cc(C(=O)c3cc(NC(=O)Cc4cccc(C(F)(F)F)c4)ccn3)c3cncnc32)COC1` [Example 166, N-(2-{[7-(3-methyloxetan-3-yl)-7H-pyrrolo[2,3-d]pyrimidin-5-yl]carbonyl}pyridin-4-yl)-2-[3-(trifluoromethyl)phenyl]acetamide], for which the IC50 was found to be 52.9 nM.
Same read-out and setting: to `CC1(n2cc(C(=O)c3cc(NC(=O)Cc4ccc(C(F)(F)F)cc4)ccn3)c3cncnc32)COC1` [Example 167, N-(2-{[7-(3-methyloxetan-3-yl)-7H-pyrrolo[2,3-d]pyrimidin-5-yl]carbonyl}pyridin-4-yl)-2-[4-(trifluoromethyl)phenyl]acetamide] belongs 72.9 nM.
Still for that read-out and setting: to `CC1(n2cc(C(=O)c3cc(NC(=O)Cc4ccc(Cl)cn4)ccn3)c3cncnc32)COC1` [Example 168, 2-(5-chloropyridin-2-yl)-N-(2-{[7-(3-methyloxetan-3-yl)-7H-pyrrolo[2,3-d]pyrimidin-5-yl]carbonyl}pyridin-4-yl)acetamide] belongs 155 nM; to `CC1(n2cc(C(=O)c3cc(NC(=O)Cc4ccc(C#N)cc4)ccn3)c3cncnc32)COC1` [Example 169, 2-(4-cyanophenyl)-N-(2-{[7-(3-methyloxetan-3-yl)-7H-pyrrolo[2,3-d]pyrimidin-5-yl]carbonyl}pyridin-4-yl)acetamide], 459 nM; to `CC1(n2cc(C(=O)c3cc(NC(=O)Cc4ccc(C(F)(F)F)c(F)c4)ccn3)c3cncnc32)COC1` [Example 170, 2-[3-fluoro-4-(trifluoromethyl)phenyl]-N-(2-{[7-(3-methyloxetan-3-yl)-7H-pyrrolo[2,3-d]pyrimidin-5-yl]carbonyl}pyridin-4-yl)acetamide], 99.8 nM.
In the case of `CC1(n2cc(C(=O)c3cc(NC(=O)Cn4cc(C(F)(F)F)nn4)ccn3)c3cncnc32)COC1` [Example 171, N-(2-{[7-(3-methyloxetan-3-yl)-7H-pyrrolo[2,3-d]pyrimidin-5-yl]carbonyl}pyridin-4-yl)-2-[4-(trifluoromethyl)-1H-1,2,3-triazol-1-yl]acetamide], the IC50 is 255 nM.
Still for that read-out and setting: then `CC1(n2cc(C(=O)c3cc(NC(=O)Cc4ccc(F)cn4)ccn3)c3cncnc32)COC1` [Example 172, 2-(5-fluoropyridin-2-yl)-N-(2-{[7-(3-methyloxetan-3-yl)-7H-pyrrolo[2,3-d]pyrimidin-5-yl]carbonyl}pyridin-4-yl)acetamide], with 1080 nM; and `CC(C)(C)n1cc(C(=O)c2ccnc(NC(=O)Cc3ccc(C#N)cc3)c2)c2cncnc21` [Example 173, N-{4-[(7-tert-butyl-7H-pyrrolo[2,3-d]pyrimidin-5-yl)carbonyl}pyridin-2-yl]-2-(4-cyanophenyl)acetamide], with 25.4 nM.
For the compound `Cc1cc(C)n(CC(=O)Nc2cc(C(=O)c3cn(C(C)(C)C)c4ncncc34)ccn2)n1` [Example 174, N-{4-[(7-tert-butyl-7H-pyrrolo[2,3-d]pyrimidin-5-yl)carbonyl}pyridin-2-yl]-2-(3,5-dimethyl-1H-pyrazol-1-yl)acetamide], the IC50 worked out at 27.3 nM.
On the same count and under the same terms, then `N#Cc1ccc(CC(=O)Nc2cc(C(=O)c3cn(C4CC4)c4ncncc34)ccn2)cc1` [Example 175, 2-(4-cyanophenyl)-N-{4-[(7-cyclopropyl-7H-pyrrolo[2,3-d]pyrimidin-5-yl)carbonyl]pyridin-2-yl}acetamide], with 407 nM.
Turning to `Cc1cc(C)n(CC(=O)Nc2cc(C(=O)c3cn(CC4(O)CC4)c4ncncc34)ccn2)n1` [Example 177, 2-(3,5-Dimethyl-1H-pyrazol-1-yl)-N-[4-({7-[(1-hydroxycyclopropyl)methyl]-7H-pyrrolo[2,3-d]pyrimidin-5-yl}carbonyl)pyridin-2-yl]acetamide], the IC50 stood at 617 nM.
On the same count and under the same terms, then “N-(2-{[7-(propan-2-yl)-7H-pyrrolo[2,3-d]pyrimidin-5-yl]carbonyl}pyridin-4-yl)-2-[4-(trifluoromethyl)-1H-1,2,3-triazol-1-yl]acetamide [Example 80]”, with 150 nM.
